Source: paper PMC10223987 (Viruses, 2023)
Counter-ions that a name gives are not always drawn. Like-named read-outs stand apart in the source and are kept apart here.

Assays:
[1] = tested on: DSP1-7 and DSP8-11 co-expressing 293FT cells; assay: cells; format: cell-based; conditions: TMPRSS2-independent / DSP reassociation control; read-out: CoTF Assay IC50
thrombin = thrombin (Homo sapiens, UniProt P00734); assay: Thrombin enzyme inhibition assay; format: biochemical
factor Xa = factor Xa (Homo sapiens, UniProt P00742); assay: Factor Xa enzyme inhibition assay; format: biochemical
Sequence of factor Xa (P00742 235-488 limits assumed): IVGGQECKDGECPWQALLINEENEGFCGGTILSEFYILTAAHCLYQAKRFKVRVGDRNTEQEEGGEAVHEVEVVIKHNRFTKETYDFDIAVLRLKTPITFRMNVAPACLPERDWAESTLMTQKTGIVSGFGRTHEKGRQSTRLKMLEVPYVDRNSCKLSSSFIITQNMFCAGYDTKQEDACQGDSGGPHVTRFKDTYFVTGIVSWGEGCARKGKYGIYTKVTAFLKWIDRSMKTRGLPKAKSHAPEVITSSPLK
Sequence of factor Xa (P00742 41-179 partner limits assumed): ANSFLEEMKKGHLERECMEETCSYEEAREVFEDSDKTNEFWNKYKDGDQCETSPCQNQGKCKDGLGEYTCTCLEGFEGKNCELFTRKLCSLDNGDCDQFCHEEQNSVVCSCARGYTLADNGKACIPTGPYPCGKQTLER

[2] = cited from earlier work
VeroE6-TMPRSS2 cells = assay: Cell toxicity assay (Celltiter-Glo); format: cell-based; conditions: 24 h, read-out: Cell Viability Inhibition IC50
SARS-CoV-2 pseudovirus = assay: microbe, parasite or virus in culture; format: cell-based; conditions: Severe acute respiratory syndrome-related coronavirus; for inhibition at 100 µM: VeroE6/TMPRSS2, read-out: SARS-CoV-2 Pseudovirus % Inhibition; for IC50: VeroE6/TMPRSS2, read-out: SARS-CoV-2 Pseudovirus IC50
TMPRSS2 = TMPRSS2 (Homo sapiens, UniProt O15393); assay: TMPRSS2 enzyme inhibition assay (fluorescence-quenched peptide substrate); format: biochemical; conditions: enzymatic assay
Sequence of TMPRSS2 (O15393 whole entry, the tested form may be a part): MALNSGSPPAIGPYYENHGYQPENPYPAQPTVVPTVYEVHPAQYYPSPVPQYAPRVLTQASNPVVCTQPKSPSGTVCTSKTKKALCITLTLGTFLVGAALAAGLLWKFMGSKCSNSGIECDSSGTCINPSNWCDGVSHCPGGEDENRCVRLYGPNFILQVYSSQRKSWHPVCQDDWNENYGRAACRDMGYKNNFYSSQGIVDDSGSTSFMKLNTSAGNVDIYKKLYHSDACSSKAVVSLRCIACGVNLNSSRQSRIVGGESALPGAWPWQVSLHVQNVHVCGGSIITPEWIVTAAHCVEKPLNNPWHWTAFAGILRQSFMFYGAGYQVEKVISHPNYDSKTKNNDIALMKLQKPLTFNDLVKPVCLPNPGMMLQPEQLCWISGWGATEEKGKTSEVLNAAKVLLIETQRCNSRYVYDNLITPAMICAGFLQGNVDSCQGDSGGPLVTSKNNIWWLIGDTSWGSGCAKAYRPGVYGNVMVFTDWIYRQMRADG

[3] = tested on: ACE2/TMPRSS2-dependant SARS-CoV-2 S protein-mediated membrane fusion; assay: microbe, parasite or virus in culture; format: cell-based
[4] = Severe acute respiratory syndrome coronavirus 2, read-out: S2TA Assay IC50

Row | Structure (SMILES) | IC50 [1] | IC50 (thrombin) | IC50 (factor Xa) | plasma half-life [2] | IC50 (VeroE6-TMPRSS2 cells) | inhibition at 100 µM (SARS-CoV-2 pseudovirus) | IC50 (SARS-CoV-2 pseudovirus) | IC50 (TMPRSS2) | IC50 [3, 4] | IC50 ([3]; read-out: S2TA Assay IC50) | melting point | fold less potential factor Xa inhibitor relative to pentamidine (factor Xa; relative to pentamidine)
1 | N=C(N)c1ccc2nc(-c3cccc(-c4nc5ccc(C(=N)N)cc5[nH]4)n3)[nH]c2c1 [Compound 10] | 37.8 µM | 0.921 µM | 5.93 µM | – | – | – | – | – | – | – | – | –
2 | CN(C)C(=O)COC(=O)Cc1ccc(OC(=O)c2ccc(NC(=N)N)cc2)cc1 [camostat] | – | – | – | 23.1 min | – | – | – | – | – | – | – | –
3 | N=C(N)c1ccc2cc(OC(=O)c3ccc(N=C(N)N)cc3)ccc2c1 [Nafamostat, nafamostat, reference compound] | – | 0.0341 µM | 1.74 µM | less than 1 min | – | – | – | – | – | – | – | –
4 | N=C(N)c1ccc2nc(-c3ccc(-c4cccc(-c5ccc(-c6nc7ccc(C(=N)N)cc7[nH]6)cc5)n4)cc3)[nH]c2c1 [Compound 13] | 37 µM | 0.929 µM | 4.89 µM | – | > 100 µM | 20.5% | > 100 µM | 72.4 µM | 13.7 µM | – | – | –
5 | N=C(N)c1ccc2nc(-c3cccc(-c4nc5ccc(C(=N)N)cc5[nH]4)c3)[nH]c2c1 [Compound 12] | > 100 µM | 0.862 µM | 34.1 µM | – | > 100 µM | 17.1% | > 100 µM | 4.89 µM | > 100 µM | – | – | –
6 | CC(C)NC(=N)c1ccc2nc(-c3ccc(-c4cccc(-c5ccc(-c6nc7ccc(C(=N)NC(C)C)cc7[nH]6)cc5)n4)cc3)[nH]c2c1 [Compound 14] | 31 µM | 2.25 µM | > 10 µM | – | > 100 µM | 77.4% | 83.7 µM | > 100 µM | 16.9 µM | 10.9 µM | – | –
7 | N=C(N)c1ccc(OCCCCCOc2ccc(C(=N)N)cc2)cc1 [Pentamidine, pentamidine, reference compound] | > 100 µM | 1.51 µM | 6.22 µM | – | > 100 µM | 69.5% | 45 µM | 3.98 µM | 32.3 µM | – | – | –
8 | N=C(N)c1ccc2nc(-c3cccc(-c4nc5ccc(C(=N)N)cc5[nH]4)n3)[nH]c2c1 (as salt: HCl) [Compound 10] | – | – | – | – | – | – | – | – | – | – | > 300 °C | –
9 | CC(C)NC(=N)c1ccc2nc(-c3cccc(-c4nc5ccc(C(=N)NC(C)C)cc5[nH]4)n3)[nH]c2c1 [Compound 11] | > 100 µM | > 1 µM | > 1 µM | – | > 100 µM | 27% | > 100 µM | > 10 µM | > 100 µM | – | – | –
10 | N=C(N)c1ccc(-c2ccc(-c3ccc(C(=N)N)cc3)o2)cc1 [Compound 7] | > 100 µM | 79.1 µM | 30.9 µM | – | > 100 µM | 2.66% | > 100 µM | 82.7 µM | > 100 µM | – | – | 5 fold
